Columns and labels:
[1] = target: SHP-2 full length protein (Homo sapiens (Human), UniProt Q06124); assay: SHP-2 biochemical DiFMUP pseudosubstrate-fluorogenic assay; details: 0.2 nM SHP-2, 1 μM IRS-1 activator peptide, 50 μM DiFMUP; read-out: SHP2 IC50
Method in brief: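 In-house recombinant full-length SHP-2 preincubated 90 min at room temperature with compounds (1:3 series, 10,000–0.005 nM), then DiFMUP substrate added at 50 μM final for 30 min more. Fluorescence normalised to DMSO wells (100%) and IC50 derived by curve fitting.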

[2] = system: NCI-H358 cells; assay: NCI-H358 3D tumor spheroid growth inhibition; type: cell-based; details: Homo sapiens, NCI-H358, 168 h, 3D spheroids, 7 days, 3D CellTiter Glo; cellular IC50 designated EC50; read-out: H358 EC50
Method in brief: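 Cells seeded at 1000/well in ultra-low-attachment plates at 37 °C, 5% CO2 to form spheroids, then incubated a further 7 days with compounds. Viability by 3D CellTiter Glo luminescence; % inhibition versus DMSO wells, with normalized cellular IC50 reported as EC50.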

Chain of SHP-2 full length protein (Q06124 whole entry): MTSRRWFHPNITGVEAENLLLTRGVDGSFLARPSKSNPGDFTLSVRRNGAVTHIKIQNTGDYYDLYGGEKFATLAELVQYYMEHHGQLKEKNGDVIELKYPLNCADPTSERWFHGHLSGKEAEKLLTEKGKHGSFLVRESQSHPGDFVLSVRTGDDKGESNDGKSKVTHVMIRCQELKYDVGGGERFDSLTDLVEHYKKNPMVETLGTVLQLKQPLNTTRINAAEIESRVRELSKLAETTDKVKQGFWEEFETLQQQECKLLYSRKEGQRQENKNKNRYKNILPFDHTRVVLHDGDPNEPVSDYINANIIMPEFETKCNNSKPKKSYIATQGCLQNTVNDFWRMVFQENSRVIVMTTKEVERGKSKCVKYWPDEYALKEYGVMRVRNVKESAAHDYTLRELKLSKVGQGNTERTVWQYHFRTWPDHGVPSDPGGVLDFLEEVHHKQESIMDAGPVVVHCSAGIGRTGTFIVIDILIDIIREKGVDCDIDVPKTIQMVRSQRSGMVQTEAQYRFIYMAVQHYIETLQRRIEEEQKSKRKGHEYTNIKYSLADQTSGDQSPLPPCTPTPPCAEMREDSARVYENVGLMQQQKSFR

SMILES	IC50 [1] [nM]	EC50 [2] [nM]
N[C@@H]1c2ccccc2CC12CCN(c1ncc(Sc3ccnc4cccnc34)c3nccn13)CC2 [Example 144, (S)-1′-(8-((1,5-naphthyridin-4-yl)thio)imidazo[1,2-c]pyrimidin-5-yl)-1,3-dihydrospiro[indene-2,4′-piperidin]-1-amine]	3.6	4.4
N[C@@H]1c2ccccc2CC12CCN(c1ncc(Sc3ccnc4ccccc34)c3nccn13)CC2 [Example 145]	2.8	20
N[C@@H]1c2cccnc2CC12CCN(c1ncc(Sc3cccc(Cl)c3Cl)c3nccn13)CC2 [Example 146, (S)-1′-(8-((2,3-dichlorophenyl)thio)imidazo[1,2-c]pyrimidin-5-yl)-5,7-dihydrospiro[cyclopenta[b]pyridine-6,4′-piperidin]-5-amine]	1.7	15
Nc1nccc(Sc2cnc(N3CCC4(CC3)Cc3ncccc3[C@H]4N)n3ccnc23)c1Cl [Example 147, (S)-1′-(8-((2-amino-3-chloropyridin-4-yl)thio)imidazo[1,2-c]pyrimidin-5-yl)-5,7-dihydrospiro[cyclopenta[b]pyridine-6,4′-piperidin]-5-amine]	4.8	5.5
N[C@H]1c2cccnc2CC12CCN(c1ncc(Sc3cccc(Cl)c3Cl)c3nccn13)CC2 [Example 148, (R)-1′-(8-((2,3-dichlorophenyl)thio)imidazo[1,2-c]pyrimidin-5-yl)-5,7-dihydrospiro[cyclopenta[b]pyridine-6,4′-piperidin]-5-amine]	41	132
Nc1nccc(Sc2cnc(N3CCC4(CC3)Cc3ncccc3[C@@H]4N)n3ccnc23)c1Cl [Example 149, (R)-1′-(8-((2-amino-3-chloropyridin-4-yl)thio)imidazo[1,2-c]pyrimidin-5-yl)-5,7-dihydrospiro[cyclopenta[b]pyridine-6,4′-piperidin]-5-amine]	75	101

— patent US11179397B2, “Imidazopyrimidine derivatives” (Gilead Sciences, Inc., priority 2018, dated 2021)
